Patent publication US10668039B2, “Methods for treatment of adenoid cystic carcinoma” (THE CHILDREN'S MEDICAL CENTER CORPORATION, priority 2016, dated 2020)
Entries after “also recorded” stand apart in the source; their conditions may differ.

Columns and labels:
[1] = tested on: c-myb:GFP; test: c-myb:GFP zebrafish blastomere embryo culture chemical screen; type: cell-based; conditions: approximately 30 μM, 2 days
Protocol: The inventors have developed an embryo culture system in which embryos bearing a c-myb:GFP transgenic reporter were dissociated during sphere stage at 4 hours post fertilization (hpf), and cultured in gelatin-coated 384 well plates with chemicals for 2 days until imaging for fluorescent reporter activity (FIG. 1). This fluorescent transgene is expressed in a similar pattern to the endogenous gene. […] This transgene responds to inducers of hematopoiesis, as myb is a marker of hematopoietic stem cells (HSCs).
The image analysis software (ImageJ and MatLab) was used to identify hits that downregulate c-myb:GFP zebrafish embryo cultures by a z-score less than […] and more than 70% downregulation. Hits were assessed by eye and scored for morphology. Toxic compounds that caused poor embryoid body (EB) formation were assessed a 4.
Zebrafish cell culture: Zebrafish embryo cultures were adapted from Xu (2013). Dissociated blastomere cells were grown in medium composed of 85% LDF medium, 5% heat inactivated FBS, and 10% zebrafish day 1 embryo extract. LDF medium contains 50% Leibowitz's L-15 (Invitrogen), 20% DMEM (Invitrogen), and 30% DMEM/F-12 (Invitrogen), supplemented with 0.018% sodium bicarbonate, 15 mM HEPES (Invitrogen), 1% L-Glutamine (Invitrogen), 10 nM sodium selenite (Sigma-Aldrich), 1% N2 (Invitrogen), 2% B27 (Invitrogen), 1% Penicillin-Streptomycin (Invitrogen), and 0.2% Primocin (InvivoGen).
Screening procedures: Two 384-well plates were coated with 0.1% gelatin for each chemical library plate. Males of the c-myb:GFP transgenic line were set up overnight with casper females and kept separated until morning when they were mixed for mating. Embryos were washed twice with E3 embryo water and treated with pronase to remove chorions. Dechorionated embryos were washed with E3 embryo water and collected into tubes containing media. Embryos were disassociated by shaking ˜10 times and were filtered through a 40 μm nylon mesh filter. Resulting single cells were diluted with medium and aliquoted 30 μl per well into the 384-well plates at approximately 2 embryo equivalents per well. Chemicals were dispensed immediately afterwards with an Agilent Bravo robot. Chemicals from the libraries were diluted 300 times with LDF medium and were aliquoted 10 μl per well for a final concentration of approximately 33 μM. […] Cells were cultured in a 28° C. incubator with 5% CO2. Two days later, cells were imaged by a Yokogawa Cell Voyager 7000 imager. Images were analyzed by ImageJ and MatLab and confirmed by eye. […]
Culture of dissociated blastomere cells: Stage-matched zebrafish blastomeres were dissociated at 4 hpf and grown in medium composed of 85% LDF medium, 5% FBS, and 10% embryo extract. LDF medium contains 50% Leibowitz's L-15 (Invitrogen), 20% DMEM (Invitrogen), and 30% DMEM/F-12 (Invitrogen), supplemented with 2% B27 (Gibco), 15 mM HEPES (Gibco), 1% L-glutamine (Gibco), 1% N2 (Gibco), 10 nM sodium selenite (Sigma), 100 ug/mL piperacillin (Sigma), 10 ug/mL ciprofloxacin (GenHunter), and 0.018% sodium bicarbonate (Gibco). Embryo extract was made by homogenizing 24 hpf wildtype AB embryos in HBSS (Gibco).

[2] = tested on: c-myb; test: qPCR of sorted c-myb:GFP zebrafish embryo cells; type: cell-based; conditions: sorted c-myb:GFP cells from 72 hpf embryos, 1 μM, 6 hours
Protocol: RA dose response experiments were plated similarly in LDF medium with the appropriate RA concentration. Sorted c-myb:GFP+ cells were collected from 72 hpf transgenic embryos that were homogenized: embryos were finely chopped and dissociated using Liberase (Roche), cell suspensions were filtered, and 58,000 GFP+ live cells were collected using a FACS Aria cell sorter (BD Biosciences). Cells were cultured for 6 hours in LDF medium, and then collected for qPCR.
(§1) Quantitative PCR: Total RNA from cells was extracted using Qiagen RNeasy Mini Kit, and random primed cDNA was generated (Invitrogen, SuperScript III First-Strand Synthesis System). The SsoFast EvaGreen (Biorad) method was used to quantify cDNAs of interest, which are represented as the fold change in transcript level. The amount of cDNA starting material for each sample was normalized in relation to species-specific β-actin expression for zebrafish samples, and both gapdh and β-actin expression for human samples. The primer sequences used were zebrafish myb: forward, 5′-[…]-3′ (SEQ ID No:1), reverse, 5′-[…]-3′ (SEQ ID No:2); zebrafish β-actin: forward, 5′-[…]-3′ (SEQ ID No:3), reverse, 5′-[…]-3′ (SEQ ID No:4); human myb: forward, 5′-[…]-3′ (SEQ ID No:5), reverse, 5′-[…]-3′ (SEQ ID No:6); human gapdh: forward, 5′-[…]-3′ (SEQ ID No:7), reverse, 5′-[…]-3′ (SEQ ID No:8); human β-actin: forward, 5′-[…]-3′ (SEQ ID No:9), reverse, 5′-[…]-3′ (SEQ ID No:10).
Zebrafish quantitative PCR analysis: Stage-matched 72 hpf c-myb:GFP transgenic embryos were finely chopped and dissociated using Liberase (Roche). GFP+ cells were collected using a FACS Aria cell sorter (BD Biosciences). Sorted cells were resuspended in zebrafish blastomere media and plated with 1 μM retinoic acid agonists for 6 hours. Cells were then collected and RNA was isolated using the RNeasy Micro Plus Kit (Qiagen) as per the manufacturer's instructions. cDNA was synthesized using the SuperScript III Kit (Life Technologies). Quantitative PCR was performed in triplicate on a BioRad iQ5 real-time PCR machine using Ssofast EvaGreen Supermix (BioRad). Samples were normalized to β-actin gene. Zebrafish primers used (forward and reverse respectively): actin, 5′-[…]-3′ (SEQ ID No:3) and 5′-[…] -3′ (SEQ ID No:4); c-myb, 5′-[…]-3′ (SEQ ID No:1) and 5′-[…]-3′ (SEQ ID No:2); mpx, 5′-[…]-3′ (SEQ ID No:11) and 5′-[…]-3′ (SEQ ID No:12); GFP, 5′-[…]-3′ (SEQ ID No:13) and 5′-[…]-3′ (SEQ ID No:14).

[3] = tested on: c-myb; test: U937 time course qPCR of c-myb; type: cell-based, human; conditions: for myb levels in U937 by qPCR: 1 μM, 6, 24 and 48 hours
Protocol: Cell culture: U937 cells were grown in RPMI 1640 (Life Technologies), 10% heat inactivated FBS, and 1% Penicillin-Streptomycin (Invitrogen). CellTiter-Glo Luminescent Cell Viability Assay (Promega) was performed as per manufacturer's instructions. Cell viability was assessed at day 2.
as §1
U937 time course quantitative PCR analysis: U937 cells were plated with 1 μM retinoic acid agonists for the duration indicated. Cells were then collected and RNA was isolated using the RNeasy Plus Mini Kit (Qiagen) as per the manufacturer's instructions. Further processing was done as described in the section above. Samples were normalized to β-actin gene. Human primers used (forward and reverse respectively): actin, 5′-[…]-3′ (SEQ ID No:9) and 5′-[…]-3′ (SEQ ID No:10); c-myb, 5′-[…]-3′ (SEQ ID No:5) and 5′-[…]-3′ (SEQ ID No:6).

[4] = Table 2, c-myb:GFP embryo cultures, average across two plates
[5] = Table 3, GFP signal in blastomere embryo culture screen

Structure (SMILES)	Z-Score [1, 4]	Z-Score [1, 5]	endogenous myb levels by qPCR [2]	myb levels in U937 by qPCR [3]	time to downregulation of c-myb expression ([3]; U937 cells, 1 μM ATRA)	myb levels in U937 by qPCR ([3]; listed as RA p-hydroxyanilide)
CC(C=CC1=C(C)CCCC1(C)C)=CC=C/C(C)=C/C(=O)O [ATRA, (E)-3,7-dimethyl-9-(2,6,6-trimethyl-1-cyclo-hexen-1-yl)-2,4,6,8-nonatetraenoic acid]	−5.729	−5.729	significantly downregulate	significantly downregulate; also recorded: reduction	≤ 3 h	
CC1=C(/C=C/C(C)=C/C=C/C(C)=C/C(=O)Nc2ccc(O)cc2)C(C)(C)CCC1 [Fenretinide, retinoic acid p-hydroxyanilide]	−1.582	−1.582	significantly downregulate	reduction		significantly downregulate
CC1=C(/C=C/C(C)=C/C=C/C(C)=C\C(=O)O)C(C)(C)CCC1 [Isotretinoin, 13-cis-retinoic acid]	−5.054	−5.054	significantly downregulate	significantly downregulate; also recorded: reduction		
